Earlier results, collected in US12357650B2, “Methods and compositions for cancer therapies that include delivery of halogenated thymidines and thymidine phosphorlylase inhibitors in combination with radiation” (Shuttle Pharmaceuticals, Inc., priority 2017, dated 2025).

Tested on: cells
Details: as compared to cells without the defective DNA; cited from earlier work

O=c1[nH]c(=O)n([C@H]2C[C@H](O)[C@@H](CO)O2)cc1Br [BUdR, 5-bromo-2′-deoxyuridine]
increase in susceptibility of cells to the lethal effects of RT: two-three fold
